The text below walks through data of US9856254B2, “Alkoxy substituted imidazoquinolines” (3M INNOVATIVE PROPERTIES COMPANY, priority 2003, dated 2018).

SMILES strings stand for the structures.

The term melting point denotes the temperature, or range, at which the solid turns liquid. In turn, `COCCc1nc2c(N)nc3cc(OCC4OCCO4)ccc3c2n1CC(C)(C)O` [Example 564, 1-[4-Amino-7-(1,3-dioxolan-2-ylmethoxy)-2-(2-methoxyethyl)-1H-imidazo[4,5-c]quinolin-1-yl]-2-methylpropan-2-ol] came in with a melting point of 131 to 136 °C.

Compound `CCCn1c(COCC)nc2c(N)nc3ccc(OCC(=O)N4CCS(=O)(=O)CC4)cc3c21` [Example 565, 8-[2-(1,1-Dioxidothiomorpholin-4-yl)-2-oxoethoxy]-2-(ethoxymethyl)-1-propyl-1H-imidazo[4,5-c]quinolin-4-amine] returned a melting point of 223 to 225 °C.

The compound `CCCn1c(COCC)nc2c(N)nc3ccc(OCC(=O)N4CCOCC4)cc3c21` [Example 566, 2-(Ethoxymethyl)-8-(2-morpholin-4-yl-2-oxoethoxy)-1-propyl-1H-imidazo[4,5-c]quinolin-4-amine] yielded a melting point of 196 to 197 °C.

As for `CCCn1c(COC)nc2c(N)nc3ccc(OCCC4CCCN4C)cc3c21` (stereo not drawn) [Example 567, 2-(Methoxymethyl)-8-[2-(1-methylpyrrolidin-2-yl)ethoxy]-1-propyl-1H-imidazo[4,5-c]quinolin-4-amine], the melting point lay within 155 to 157 °C.

For the compound `CCc1nc2c(N)nc3cc(OCCN4CCOCC4)ccc3c2n1CC1CCOCC1` [Example 568, 2-Ethyl-7-(2-morpholin-4-ylethoxy)-1-(tetrahydro-2H-pyran-4-ylmethyl)-1H-imidazo[4,5-c]quinolin-4-amine], the melting point is 230 to 232 °C.

On to `CCCn1c(COCC)nc2c(N)nc3ccc(OCC4CCCO4)cc3c21` (stereo not drawn) [Example 569, 2-(Ethoxymethyl)-1-propyl-8-(tetrahydrofuran-2-ylmethoxy)-1H-imidazo[4,5-c]quinolin-4-amine], for which the melting point lay in the range of 178 to 179 °C.

As to `CCCn1c(COCC)nc2c(N)nc3ccc(OC(=O)N4CCOCC4)cc3c21` [Example 570, 4-Amino-2-(ethoxymethyl)-1-propyl-1H-imidazo[4,5-c]quinolin-8-yl morpholine-4-carboxylate], the melting point was 193 to 196 °C.

On to `CCCn1c(COCC)nc2c(N)nc3ccc(OCCN4CCCCCC4)cc3c21` [Example 571, 8-(2-Azepan-1-ylethoxy)-2-(ethoxymethyl)-1-propyl-1H-imidazo[4,5-c]quinolin-4-amine], for which the melting point lay within 146 to 148 °C.

`CCOCc1nc2c(N)nc3cc(OCC(=O)N4CCOCC4)ccc3c2n1CC(C)(C)O` [Example 646, 1-[4-Amino-2-(ethoxymethyl)-7-(2-morpholin-4-yl-2-oxoethoxy)-1H-imidazo[4,5-c]quinolin-1-yl]-2-methylpropan-2-ol] had a melting point of 209 to 211 °C.

With `CCOCc1nc2c(N)nc3cc(OCCN4CCOCC4)ccc3c2n1CC(C)(C)O` [Example 647, 1-[4-Amino-2-(ethoxymethyl)-7-(2-morpholin-4-ylethoxy)-1H-imidazo[4,5-c]quinolin-1-yl]-2-methylpropan-2-ol], the melting point fell in the range of 161 to 163 °C.

With `CCCn1c(COCC)nc2c(N)nc3cc(OCC(=O)N4CCOCC4)ccc3c21` [Example 648, 2-(Ethoxymethyl)-7-(2-morpholin-4-yl-2-oxoethoxy)-1-propyl-1H-imidazo[4,5-c]quinolin-4-amine], the melting point came out at 213 °C.

As for `CCCn1c(COCC)nc2c(N)nc3cc(OCCN4CCOCC4)ccc3c21` [Example 649, 2-(Ethoxymethyl)-7-(2-morpholin-4-ylethoxy)-1-propyl-1H-imidazo[4,5-c]quinolin-4-amine], the melting point lay within 191 to 192 °C.

As to `CCc1nc2c(N)nc3cc(OCCN)ccc3c2n1CC1CCOCC1` [Example 650, 7-(2-Aminoethoxy)-2-ethyl-1-(tetrahydro-2H-pyran-4-ylmethyl)-1H-imidazo[4,5-c]quinolin-4-amine], the melting point is 238 °C (dec.).

Compound `CCc1nc2c(N)nc3cc(OCCNC(=O)NC(C)C)ccc3c2n1CC1CCOCC1` [Example 651, N-(2-{[4-Amino-2-ethyl-1-(tetrahydro-2H-pyran-4-ylmethyl)-1H-imidazo[4,5-c]quinolin-7-yl]oxy}ethyl)-N′-isopropylurea] registered a melting point of 223 to 225 °C.

Regarding `CCc1nc2c(N)nc3cc(OCCNC(C)=O)ccc3c2n1CC1CCOCC1` [Example 652, N-(2-{[4-Amino-2-ethyl-1-(tetrahydro-2H-pyran-4-ylmethyl)-1H-imidazo[4,5-c]quinolin-7-yl]oxy}ethyl)acetamide], the melting point lay in the range of 165 to 167 °C.

As for `CCOCc1nc2c(N)nc3cc(OCCN)ccc3c2n1CC(C)(C)O` [Example 654, 1-[4-Amino-7-(2-aminoethoxy)-2-(ethoxymethyl)-1H-imidazo[4,5-c]quinolin-1-yl]-2-methylpropan-2-ol], the melting point lay within 163 to 165 °C.

In the case of `CCOCc1nc2c(N)nc3cc(OC4CCN(C(C)=O)CC4)ccc3c2n1CC(C)(C)O` [Example 656, 1-[7-[(1-Acetylpiperidin-4-yl)oxy]-4-amino-2-(ethoxymethyl)-1H-imidazo[4,5-c]quinolin-1-yl]-2-methylpropan-2-ol], the melting point lay in the range of 162 to 164 °C.

Compound `CCCn1c(COC)nc2c(N)nc3ccc(OCCCN4CCN(c5ccccn5)CC4)cc3c21` [Example 657, 2-(Methoxymethyl)-1-propyl-8-[3-(4-pyridin-2-ylpiperazin-1-yl)propoxy]-1H-imidazo[4,5-c]quinolin-4-amine] yielded a melting point of 196 to 197 °C.
